In PubChem BioAssay AID328 (DTP/NCI, 2004):
“And” between values parts separate entries of the source, which are not always exact repeats. Identical values can stand only once. Inconclusive results and toxic doses are left out.

System: BDF1 mice, P388 leukemia ip, median survival T/C
Test: NCI In Vivo Anticancer Drug Screen. Data for tumor model P388 Leukemia (intraperitoneal) in B6D2F1 (BDF1) mice
Settings: endpoint: median survival time, higher = longer survival
Summary of the method: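 Each value expresses how treatment altered survival: treated-mouse outcome over vehicle-mouse outcome, both groups bearing the transplanted tumour.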

[1] = dose: 200.0 mg/kg/injection, schedule: Q04DX003 (ip), vehicle: Klucel (hydroxypropylcellulose) (HPC)
[2] = dose: 400.0 mg/kg/injection, schedule: Q04DX003 (ip), vehicle: Klucel (hydroxypropylcellulose) (HPC)
[3] = dose: 100.0 mg/kg/injection, schedule: Q04DX003 (ip), vehicle: Klucel (hydroxypropylcellulose) (HPC)
[4] = dose: 100.0 mg/kg/injection, schedule: Q04DX003 (ip), vehicle: saline sonified
[5] = dose: 200.0 mg/kg/injection, schedule: Q04DX003 (ip), vehicle: saline sonified
[6] = dose: 150.0 mg/kg/injection, schedule: Q04DX003 (ip), vehicle: saline with Tween-80
[7] = dose: 100.0 mg/kg/injection, schedule: Q01DX009 (ip), vehicle: saline with Tween-80
[8] = dose: 100.0 mg/kg/injection, schedule: Q04DX003 (ip), vehicle: saline with Tween-80
[9] = dose: 200.0 mg/kg/injection, schedule: Q04DX003 (ip), vehicle: saline with Tween-80
[10] = dose: 100.0 mg/kg/injection, schedule: Q01DX009 (ip), vehicle: saline

Cc1cc(N)c2cc(NC(=O)CCCCCCCCC(=O)Nc3ccc4nc(C)cc(N)c4c3)ccc2n1
T/C (dose: 5.5 mg/kg/injection, schedule: Q01DX009 (ip), vehicle: Klucel (hydroxypropylcellulose) (HPC)): 108 % of control
T/C (dose: 8.2 mg/kg/injection, schedule: Q01DX009 (ip), vehicle: Klucel (hydroxypropylcellulose) (HPC)): 121 % of control
T/C (dose: 8.3 mg/kg/injection, schedule: Q04DX003 (ip), vehicle: Klucel (hydroxypropylcellulose) (HPC)): 91 % of control
T/C (dose: 12.0 mg/kg/injection, schedule: Q04DX003 (ip), vehicle: Klucel (hydroxypropylcellulose) (HPC)): 104 % of control
T/C (dose: 45.0 mg/kg/injection, schedule: Q04DX003 (ip), vehicle: Klucel (hydroxypropylcellulose) (HPC)): 150 % of control
T/C (dose: 50.0 mg/kg/injection, schedule: Q01DX009 (ip), vehicle: Klucel (hydroxypropylcellulose) (HPC)): 186 % of control
T/C (dose: 80.0 mg/kg/injection, schedule: Q04DX003 (ip), vehicle: Klucel (hydroxypropylcellulose) (HPC)): 168 % of control
T/C (dose: 100.0 mg/kg/injection, schedule: Q04DX003 (ip), vehicle: other): 172 % of control
T/C (dose: 120.0 mg/kg/injection, schedule: Q04DX003 (ip), vehicle: Klucel (hydroxypropylcellulose) (HPC)): 172 % of control
T/C (dose: 180.0 mg/kg/injection, schedule: Q04DX003 (ip), vehicle: Klucel (hydroxypropylcellulose) (HPC)): 177 % of control
T/C [1]: 150 % of control
T/C (dose: 200.0 mg/kg/injection, schedule: Q04DX003 (ip), vehicle: other): 181 % of control
T/C (dose: 264.0 mg/kg/injection, schedule: Q04DX003 (ip), vehicle: Klucel (hydroxypropylcellulose) (HPC)): 227 % of control
T/C (dose: 400.0 mg/kg/injection, schedule: Q01DX009 (ip), vehicle: Klucel (hydroxypropylcellulose) (HPC)): 160 % of control
T/C [2]: 261 % of control and 160 % of control
T/C (dose: 400.0 mg/kg/injection, schedule: Q04DX003 (ip), vehicle: other): 186 % of control

CCSc1c(S)cnn(C)c1=O
T/C (dose: 50.0 mg/kg/injection, schedule: Q01DX005 (ip), vehicle: saline with Tween-80): 90 % of control
T/C (dose: 100.0 mg/kg/injection, schedule: Q01DX005 (ip), vehicle: saline with Tween-80): 90 % of control
T/C (dose: 200.0 mg/kg/injection, schedule: Q01DX005 (ip), vehicle: saline with Tween-80): 97 % of control

O=NN(CCCl)C(=O)NC1C2CC3CC(C2)CC1C3 (stereo not drawn)
T/C (dose: 5.56 mg/kg/injection, schedule: Q01DX009 (ip), vehicle: other): 207 % of control
T/C (dose: 8.3 mg/kg/injection, schedule: Q04DX003 (ip), vehicle: other): 159 % of control
T/C (dose: 8.33 mg/kg/injection, schedule: Q01DX009 (ip), vehicle: other): 287 % of control
T/C (dose: 12.5 mg/kg/injection, schedule: Q01DX009 (ip), vehicle: other): 281 % of control and 305 % of control
T/C (dose: 12.5 mg/kg/injection, schedule: Q04DX003 (ip), vehicle: other): 263 % of control
T/C (dose: 18.7 mg/kg/injection, schedule: Q01DX009 (ip), vehicle: other): 188 % of control
T/C (dose: 18.7 mg/kg/injection, schedule: Q04DX003 (ip), vehicle: other): 222 % of control
T/C (dose: 25.0 mg/kg/injection, schedule: Q01DX009 (ip), vehicle: other): 231 % of control
T/C (dose: 50.0 mg/kg/injection, schedule: Q01DX009 (ip), vehicle: other): 100 % of control

CCCCCCCCCCCCCCCCCC(=O)Oc1ccc(OCc2ccccc2)cc1
T/C [3]: 100 % of control
T/C [1]: 100 % of control
T/C [2]: 90 % of control

CC(=O)N(NC(=O)c1ccccn1)C(C)=O
T/C (dose: 50.0 mg/kg/injection, schedule: Q01DX009 (ip), vehicle: saline sonified): 86 % of control
T/C (dose: 50.0 mg/kg/injection, schedule: Q04DX003 (ip), vehicle: saline sonified): 104 % of control
T/C (dose: 100.0 mg/kg/injection, schedule: Q01DX009 (ip), vehicle: saline sonified): 95 % of control
T/C [4]: 90 % of control
T/C (dose: 200.0 mg/kg/injection, schedule: Q01DX009 (ip), vehicle: saline sonified): 91 % of control
T/C [5]: 104 % of control

CCCCCCCN(CCCCCCC)CC(O)c1cc2ccccc2c2cnccc12 (stereo not drawn)
T/C (dose: 75.0 mg/kg/injection, schedule: Q04DX003 (ip), vehicle: saline with Tween-80): 104 % of control
T/C [6]: 113 % of control
T/C (dose: 300.0 mg/kg/injection, schedule: Q04DX003 (ip), vehicle: saline with Tween-80): 95 % of control

CCCC(F)C(=O)OCC (stereo not drawn)
T/C [7]: 90 % of control
T/C [8]: 100 % of control
T/C (dose: 200.0 mg/kg/injection, schedule: Q01DX009 (ip), vehicle: saline with Tween-80): 104 % of control
T/C [9]: 109 % of control
T/C (dose: 400.0 mg/kg/injection, schedule: Q01DX009 (ip), vehicle: saline with Tween-80): 118 % of control
T/C (dose: 400.0 mg/kg/injection, schedule: Q04DX003 (ip), vehicle: saline with Tween-80): 100 % of control

CC1(C)N=C(N)N=C(N)N1c1ccc(OCCOc2ccc(NC(=O)CBr)cc2)cc1
T/C (dose: 2.5 mg/kg/injection, schedule: Q01DX009 (ip), vehicle: saline with Tween-80): 95 % of control
T/C (dose: 5.0 mg/kg/injection, schedule: Q01DX009 (ip), vehicle: saline with Tween-80): 112 % of control
T/C [7]: 172 % of control
T/C [10]: 230 % of control
T/C [4]: 165 % of control and 170 % of control
T/C (dose: 150.0 mg/kg/injection, schedule: Q01DX009 (ip), vehicle: saline with Tween-80): 218 % of control
T/C (dose: 150.0 mg/kg/injection, schedule: Q04DX003 (ip), vehicle: saline sonified): 165 % of control
T/C (dose: 200.0 mg/kg/injection, schedule: Q01DX009 (ip), vehicle: saline): 90 % of control
T/C [5]: 200 % of control
T/C (dose: 400.0 mg/kg/injection, schedule: Q04DX003 (ip), vehicle: saline sonified): 245 % of control

CCN(CC)CC1CO1 (stereo not drawn)
T/C (dose: 12.5 mg/kg/injection, schedule: Q01DX009 (ip), vehicle: saline): 100 % of control

NCCCOc1ccc([N+](=O)[O-])cc1Cl
T/C (dose: 25.0 mg/kg/injection, schedule: Q01DX009 (ip), vehicle: saline): 105 % of control
T/C (dose: 50.0 mg/kg/injection, schedule: Q01DX009 (ip), vehicle: saline): 105 % of control
T/C [10]: 104 % of control

CC1=CC(c2ccc3c(c2)OCO3)c2c(c3ccccc3oc2=O)O1 (stereo not drawn)
T/C (dose: 12.5 mg/kg/injection, schedule: Q01DX009 (ip), vehicle: water): 107 % of control
T/C (dose: 100.0 mg/kg/injection, schedule: Q04DX003 (ip), vehicle: water): 104 % of control
T/C (dose: 200.0 mg/kg/injection, schedule: Q04DX003 (ip), vehicle: water): 98 % of control
T/C (dose: 400.0 mg/kg/injection, schedule: Q04DX003 (ip), vehicle: water): 90 % of control

N#CC1CCCCC1C1(C#N)CCCCC1Cc1ccccn1 (stereo not drawn)
T/C (dose: 100.0 mg/kg/injection, schedule: Q04DX002 (ip), vehicle: saline with Tween-80): 98 % of control
T/C (dose: 200.0 mg/kg/injection, schedule: Q04DX002 (ip), vehicle: saline with Tween-80): 107 % of control
T/C (dose: 400.0 mg/kg/injection, schedule: Q04DX002 (ip), vehicle: saline with Tween-80): 92 % of control

CN(N=O)C(=O)Nc1ccc(C(=O)O)cc1
T/C (dose: 29.0 mg/kg/injection, schedule: Q04DX003 (ip), vehicle: saline with Tween-80): 159 % of control
T/C (dose: 45.0 mg/kg/injection, schedule: Q04DX003 (ip), vehicle: saline with Tween-80): 163 % of control
T/C (dose: 66.0 mg/kg/injection, schedule: Q04DX003 (ip), vehicle: saline with Tween-80): 170 % of control
T/C [8]: 250 % of control
T/C [6]: 240 % of control

COC(=O)C1CN(c2ccccc2)N=C1C(C)=O (stereo not drawn)
T/C [8]: 89 % of control
T/C [9]: 86 % of control

O=C(NNC1CCN(Cc2ccccc2)CC1)c1ccccc1
T/C (dose: 1.1 mg/kg/injection, schedule: Q04DX003 (ip), vehicle: saline with Tween-80): 100 % of control
T/C (dose: 1.65 mg/kg/injection, schedule: Q04DX003 (ip), vehicle: saline with Tween-80): 100 % of control
T/C (dose: 2.5 mg/kg/injection, schedule: Q04DX003 (ip), vehicle: saline with Tween-80): 100 % of control
T/C (dose: 3.75 mg/kg/injection, schedule: Q04DX003 (ip), vehicle: saline with Tween-80): 100 % of control
T/C (dose: 5.0 mg/kg/injection, schedule: Q04DX003 (ip), vehicle: saline with Tween-80): 104 % of control
T/C (dose: 10.0 mg/kg/injection, schedule: Q04DX003 (ip), vehicle: saline with Tween-80): 104 % of control

Cc1ccc(NC(=O)c2ccccc2C(=O)O)cc1Cl
T/C [3]: 95 % of control
T/C [1]: 95 % of control
T/C [2]: 91 % of control
